Four compounds from patent US12049455B2, “Compositions and methods for the prevention and/or treatment of mitochondrial disease, including Friedreich's ataxia” (Stealth BioTherapeutics Inc., priority 2019, dated 2024) can be followed below.

One assay relates to Nrf-2. The assay can be described thus: Nrf-2 Activation Assay (Nrf-2 Assay). The assay is classed as cell-based, human. As to conditions: 1 μM compound, 24 hours. On the procedure: This assay was developed internally and was designed to determine if the novel test compounds disclosed herein active Nrf-2 and thereby promote resolution of inflammation by the mechanism believed to be responsible for the activity of omaveloxolone.
Briefly, GM03665 Friedreich Ataxia patient fibroblasts were grown in 12 Well Plates (TC Cell+F) (Sarstedt, Numbrecht Germany), at a density of […] in DMEM/F12 (Gibco, ThermoFisher Scientific, Waltham, MA, USA) cell media supplemented with 10% FBS and 1% Pen/Strep. Cells were left to rest overnight at 37° C. in a humidified atmosphere with 5% CO2 to allow attachment of the cells to the culture plate. Before continuing assay visual inspection of each well was done by light microscopy to detect any possible bacterial and fungal contamination. […] After incubation, cell media was removed and total RNA from the cells was isolated using E.Z.N.A.® Total RNA Kit I (Omega Bio-tek, Norcross, Georgia, USA) spin columns, and first-strand cDNA synthesis was carried out using a High Capacity cDNA Reverse Transcription Kit (Applied Biosystems™, Foster City, CA) following the manufacturer's instructions. qPCR analysis of gene expression was performed by mixing SYBR® Green Master Mix (Applied Biosystems™) with synthesized cDNA and forward and reverse primers. […] (60 cycles), and 95° C. for 60 seconds, followed by melt curve analysis at 72-95° C., 0.3° C./sec. The relative expression levels for each gene were calculated with the ΔΔCt method and normalized to the expression of REEP5 and SNRPD3 genes.

Assay [1] concerns frataxin deficient fibroblasts (GM03665). The assay is classed as cell-based. The settings on record: summary of Table 7.
The next assay concerns GM03665 cells. The assay can be described thus: RSL3 Toxicity Assay (RSL3 Assay). The assay is classed as cell-based, human. As to conditions: protection of Friedreich's ataxia fibroblasts from RSL3. As for the experimental part:
In brief, GM03665 cells (Coriell Institute) were seeded in 96-well plates (Sarstedt) in DMEM cell culture media containing 10% Fetal Bovine serum and 1% Penicillin-Streptomycin (Pen-Strep) antibiotic mix at the amount of 2×10^4/mL (100 μL or 2×10^3 cells per well). Cells were left to rest overnight at 37° C. in a humidified atmosphere with 5% CO2 to allow attachment of the cells to the culture plate. Test compounds were prepared as DMSO stocks (10 mM) and were serially diluted in cell culture media to obtain 2× working solutions. Cell media was discarded and replaced by 50 μL of test compound solutions or cell media with vehicle for control wells. Within 15 minutes, 2× working solution (4 μM) of 1S,3R-RSL3 (CAS #1219810-16-8, Sigma-Aldrich) (diluted from 5 mM DMSO stock in cell culture media) was added. Final reaction volume was 100 μL and final DMSO concentration in reaction was kept below 0.2% (v/v) and equal in all wells. Final RSL3 concentration was 2 μM and test compound final concentrations in reaction were up to 1000 nM. After 24 hours of incubation cell viability was assessed by MTT test. MTT (Sigma-Aldrich) solution 1 mg/mL in 1×PBS (pH=7,4) was prepared 1 hour before the assay and filtered through Filtropur S 0.2 filters (Sarstedt). […] Absorption at 570 and 650 nm was measured using Hidex Sense microplate reader.

Another assay relates to HepG2 cells. The assay can be described thus: Rotenone Oxygraph Assay (high-resolution respirometry of intact HepG2 cells). The assay is classed as cell-based, human. The settings on record: for active in Complex I by-pass (in words): summary of Table 7 (Rotenone ATP and Rotenone Oxygraph assays). As for the experimental part: The Oxygraph-2 k (O2k, OROBOROS INSTRUMENTS, Austria) was used for measurements of respiration of intact cells. The respirometry was performed in Dulbecco's Modified Eagle Medium (DMEM) high glucose without supplements. All experiments were performed at 37° C.
HepG2 cells (ATCC collection code HB-8065™) were cultured in 10 cm^2 culture dishes in DMEM high glucose medium supplemented with 10% fetal bovine serum (FBS) and 100 units/mL penicillin and 100 μg/mL streptomycin until approximately 90% confluence was reached. Immediately prior to performing the respirometric assay, the cells were washed with media without FBS, trypsinized and resuspended in DMEM high glucose without FBS.
The final concentration of intact cells in the O2k-chamber was 0.5·10^6/mL. After stabilization of respiration, the Complex I inhibitor, rotenone, at 1 μM final concentration was added to inhibit electron flux via Complex I. Then, compound to be tested was added at 10 μM final concentration, and the change in respiration rate of intact cells was monitored.

As for `CC1=C(C)C(=O)C(CC[C@](C)(O)CC/C=C(\C)CC/C=C(\C)CCC=C2COC2)=C(C)C1=O` [Compound E, 2-((R,6E,10E)-3-hydroxy-3,7,11-trimethyl-14-(oxetan-3-ylidene)tetradeca-6,10-dien-1-yl)-3,5,6-trimethylcyclohexa-2,5-diene-1,4-dione], in the assay with Nrf-2, the “activation of Nrf-2 responsive genes (in words, FIG. 7)” value (“activation of Nrf-2 responsive genes” below) is on record as “do not activate”.
With `COC1=C(OC)C(=O)C(CCCCCCCCCCO)=C(C)C1=O` [Idebenone, reference compound], the “activity in the BSO assay (in words)” value in assay [1] was “very weakly active/borderline inactive”.
Consider `CC1(C)CC[C@]2(NC(=O)C(C)(F)F)CC[C@]3(C)[C@H](C(=O)C=C4[C@@]5(C)C=C(C#N)C(=O)C(C)(C)[C@@H]5CC[C@]43C)[C@@H]2C1` [Omaveloxolone, reference compound], for which the “activity in the RSL3 Assay (in words)” value in the assay on GM03665 cells was “completely inactive”. Moreover, the “active in Complex I by-pass (in words)” value with HepG2 cells is listed as “are not”. Moreover, in the assay with Nrf-2, the “activation of Nrf-2 responsive genes” value is recorded as “positive”.
For the compound “(R)-2-(3-hydroxy-3-methyl-4-(3-(trimethylsilyl)propoxy)butyl)-3,5,6-trimethylcyclohexa-2,5-diene-1,4-dione [Compound M]”, the “activity in the BSO assay (in words)” value in assay [1] is given as “active”. In addition, in the assay with GM03665 cells, the “activity in the RSL3 Assay (in words)” value is recorded as “active”. Moreover, the “Rotenone Oxygraph Assay % Increase (Table 7)” value in the assay on HepG2 cells (intact HepG2 cells, rotenone 1 μM, compound 10 μM) was 56.6 +/− 11.3%. Besides, in the assay with HepG2 cells (intact HepG2 cells, rotenone 1 μM, compound 10 μM, change in respiration rate), the “Percent increase in ATP (Rotenone Oxygraph Assay, Table 4)” value is 56.6 +/− 11.3%. In addition, the “active in Complex I by-pass (in words)” value in the assay on HepG2 cells is listed as “active”. In addition, the “activation of Nrf-2 responsive genes” value with Nrf-2 is on record as “do not activate”. Moreover, the “Nrf-2 Assay (Table 7)” value in the assay with Nrf-2 (GM03665 fibroblasts, qPCR of Nrf-2 responsive genes) is recorded as “Inactive”.
